Data as given in patent US20230014918A1, “COMPOSITIONS FOR USE AS ANTIOXIDANT” (priority 2019, published 2023).
“Also recorded” adds a separate entry of the source.

Tests used:
mice mesenteric arteries [1] = experiment: Evaluation of NO production by DAF-FM in mice mesenteric arteries; type: cell-based; conditions: single anthocyanins 50 μg/mL
Procedure: Production of NO was assessed as previously described (Carrizzo et al. 2016). […] Mesenteric segments were cut in 5-μm thick sections, observed under a fluorescence microscope, subsequently counterstained with haematoxylin and eosin and observed under a light microscope.
Scale bar, 50 μm. E) Semiquantitative analyses of immunoblots of mice mesenteric arteries treated with HB (100 μg/mL) alone, or HB plus Akt inhibitor or LY294002, columns are the mean±SEM of three independent experiments. Statistical analyses were performed using two-way ANOVA followed Bonferroni post-hoc test. *p<0.05; **p<0.01, ***p<0.001.

mice mesenteric arteries [2] = experiment: Vascular reactivity of phenylephrine-precontracted mice mesenteric arteries; type: cell-based; conditions: for direct dose-dependent vasorelaxation compared with Healthberry 865 / vasorelaxation reached: single anthocyanins; for direct dose-dependent vasorelaxation compared with Healthberry 865: 1-100 μg/mL; for vasorelaxation reached: dose-response curves 1-100 μg/mL
Procedure: Aorta, carotid, femoral arteries and second-order branches of the mesenteric arterial tree were removed from mice to perform vascular studies. […] First, an analysis of vascular reactivity curves was performed. In particular, vasoconstriction was assessed with 80 mmol/L of KCI or with increasing doses of phenylephrine (from 10^-9 M to 10^-6 M) in control conditions. […] Caution was taken to avoid endothelial damage; functional integrity was reflected by the response to acetylcholine (from 10^-9 M to 10^-6 M).

mice mesenteric arteries [3] = experiment: Total ROS production by Dihydrorhodamine 123 (DHR123) in mouse vessels; type: cell-based; conditions: vessels stimulated with Angiotensin II
Procedure: (§1) Dihydroethidium (DHE, Life Technologies) was used to evaluate production of reactive oxygen species (ROS) in mouse mesenteric arteries, as previously described. Briefly, vessels were incubated with 5 μM of DHE for 20 min and subsequently observed under a fluorescence microscope (Zeiss). Images were acquired by a digital camera system (Olympus Soft Imaging Solutions). […] After treatment, vessels were incubated with Krebs solution containing 5 μM DHR123 for 30 min at 37° C., and then washed two times with PBS prior to fluorescence measurement using a fluorescence microplate reader (TECAN infinite 200 Pro).

mice mesenteric arteries [4] = experiment: Total ROS production by dihydroethidium (DHE) in Angiotensin II-stimulated mice mesenteric arteries; type: cell-based; conditions: pre-treatment 50 μg/mL for 1 hour, then Angiotensin II for 15 minutes
Procedure: as §1

NADPH oxidase = NADPH oxidase activity, lucigenin-enhanced chemiluminescence assay in mesenteric arteries; type: cell-based, mice; conditions: after stimulation with Angiotensin II
Procedure: Vessels were homogenized in a buffer containing protease inhibitors (mmol/L: 20 monobasic potassium phosphate, 1 EGTA, 0.01 aprotinin, 0.01 leupeptin, 0.01 pepstatin, 0.5 phenylmethylsulfonyl fluoride, pH 7.0). Protein content was measured in an aliquot of the homogenate by Bradford method. In some experiments, cells and vessels were pre-incubated with pharmacological inhibitors before measurements. The reaction was started by the addition of NADPH (0.1 mmol/l) and lucigenin (5 μmol/l) to each well. The chemiluminescence was measured using Tecan Infinite Pro M200 multimode microplate at 37° C.
Vessels were pre-treated with single anthocyanins (50 μg/mL) for 1 hours and then stimulated with Angiotensin II for 15 minutes prior to the acquisition. […] Data are expressed as increase of chemiluminescence per minute.

| Molecule | nitric oxide production (DAF-FM fluorescence) (mice mesenteric arteries [1]) | vasorelaxant effect in presence of Akt inhibitor (mice mesenteric arteries [2]; increasing doses, Akt inhibitor) | vasorelaxant effect in presence of PI3K inhibitor LY294002 (mice mesenteric arteries [2]; increasing doses, pre-treatment with LY294002) | vasorelaxant effect in presence of L-NAME (mice mesenteric arteries [2]; increasing doses, pre-treatment with eNOS inhibitor L-NAME) | vasorelaxant effect in presence of Dorsomorphin (mice mesenteric arteries [2]; increasing doses, selective AMPK inhibitor Dorsomorphin) | direct dose-dependent vasorelaxation compared with Healthberry 865 (mice mesenteric arteries [2]) | total ROS production (DHR123) (mice mesenteric arteries [3]) | Angiotensin II-induced ROS formation (DHE) (mice mesenteric arteries [4]) | NADPH oxidase (NOX) activity (NADPH oxidase) | vasorelaxation reached (mice mesenteric arteries [2]) |
| --- | --- | --- | --- | --- | --- | --- | --- | --- | --- | --- |
| OC[C@H]1O[C@@H](Oc2cc3c(O)cc(O)cc3[o+]c2-c2ccc(O)c(O)c2)[C@H](O)[C@@H](O)[C@H]1O [C3-gal, Cyanidin-3-galactoside] | significant increase of nitric oxide production | did not inhibit C3-gal vascular action | did not inhibit C3-gal vascular action | significantly reduced its vasorelaxant properties | completely lost its vasorelaxant capability | very similar to that induced by Healthberry 865® |  |  |  |  |
| OC[C@H]1O[C@@H](Oc2cc3c(O)cc(O)cc3[o+]c2-c2ccc(O)c(O)c2)[C@H](O)[C@@H](O)[C@@H]1O [C3-glu, Cyanidin-3-glucoside] |  |  |  |  |  | none of the single anthocyanins was able to evoke a dose-dependent vasorelaxation comparable | a similar effect was reproduced | able to reproduce the antioxidant action of Healthberry 865® | able to reduce NOX activity; also recorded: most powerful anthocyanins closer to the potent effect of Healthberry 865® |  |
| C[C@@H]1O[C@@H](OC[C@H]2O[C@@H](Oc3cc4c(O)cc(O)cc4[o+]c3-c3ccc(O)c(O)c3)[C@H](O)[C@@H](O)[C@@H]2O)[C@H](O)[C@H](O)[C@H]1O [C3-rut, Cyanidin-3-rutinoside] |  |  |  |  |  | none of the single anthocyanins was able to evoke a dose-dependent vasorelaxation comparable; also recorded: vasorelaxant effects evoked by DP3-gal, C3-rut and DP3-ara were observed | a similar effect was reproduced | able to reproduce the antioxidant action of Healthberry 865® | able to reduce NOX activity | ~36,5% |
| Oc1cc(O)c2cc(O[C@H]3OC[C@H](O)[C@H](O)[C@H]3O)c(-c3cc(O)c(O)c(O)c3)[o+]c2c1 [DP3-ara, Delphinidin-3-arabinoside] |  |  |  |  |  | none of the single anthocyanins was able to evoke a dose-dependent vasorelaxation comparable; also recorded: vasorelaxant effects evoked by DP3-gal, C3-rut and DP3-ara were observed |  |  |  |  |
| OC[C@H]1O[C@@H](Oc2cc3c(O)cc(O)cc3[o+]c2-c2cc(O)c(O)c(O)c2)[C@H](O)[C@@H](O)[C@H]1O [DP3-gal, Delphinidin-3-galactoside] |  |  |  |  |  | none of the single anthocyanins was able to evoke a dose-dependent vasorelaxation comparable; also recorded: vasorelaxant effects evoked by DP3-gal, C3-rut and DP3-ara were observed |  |  |  | about 32,5% |
| OC[C@H]1O[C@@H](Oc2cc3c(O)cc(O)cc3[o+]c2-c2cc(O)c(O)c(O)c2)[C@H](O)[C@@H](O)[C@@H]1O [DP3-glu, Delphinidin-3-glucoside] |  |  |  |  |  | none of the single anthocyanins was able to evoke a dose-dependent vasorelaxation comparable | a similar effect was reproduced | able to reproduce the antioxidant action of Healthberry 865® | able to reduce NOX activity |  |
| COc1cc(-c2[o+]c3cc(O)cc(O)c3cc2O[C@@H]2O[C@H](CO)[C@H](O)[C@H](O)[C@H]2O)cc(OC)c1O [MAL3-gal, Malvidin-3-galactoside] |  |  |  |  |  | none of the single anthocyanins was able to evoke a dose-dependent vasorelaxation comparable | a similar effect was reproduced | able to reproduce the antioxidant action of Healthberry 865® | able to reduce NOX activity |  |
| COc1cc(-c2[o+]c3cc(O)cc(O)c3cc2O[C@@H]2O[C@H](CO)[C@@H](O)[C@H](O)[C@H]2O)cc(OC)c1O [MAL3-glu, Malvidin-3-glucoside] |  |  |  |  |  | none of the single anthocyanins was able to evoke a dose-dependent vasorelaxation comparable | a similar effect was reproduced | able to reproduce the antioxidant action of Healthberry 865® | able to reduce NOX activity; also recorded: most powerful anthocyanins closer to the potent effect of Healthberry 865® |  |
| COc1cc(-c2[o+]c3cc(O)cc(O)c3cc2O[C@@H]2O[C@H](CO)[C@@H](O)[C@H](O)[C@H]2O)cc(O)c1O [PT3-glu, Petunidin-3-glucoside] |  |  |  |  |  | none of the single anthocyanins was able to evoke a dose-dependent vasorelaxation comparable |  |  |  |  |
| Peonidin-3-galactoside [PEO3-gal] |  |  |  |  |  | none of the single anthocyanins was able to evoke a dose-dependent vasorelaxation comparable | a similar effect was reproduced | able to reproduce the antioxidant action of Healthberry 865® | able to reduce NOX activity |  |
